The subject of data set [1] is Mexican avocados. Put plainly: Quality defects of ripened Mexican avocados. The data set is classed as in vivo, avocado. As for the experimental part:
(§1) Four groups of 180 (i.e., 3 sets of 60) Mexican avocados were analyzed over four days. One group received no 1-MCP, and the other group was exposed for eight hours to 1-MCP using 2, 4, or 6 packets of 1-MCP (immobilized in cyclodextrin at 0.014%) per set. Each packet was wetted with water, and then placed in a sealed 30 L container along with 1 set of 60 avocados. The avocados were left in the sealed container for 8 hr. After 8 hours, the avocados were removed and the respiration rate was measured over the course of 4 days. Additionally, the firmness of the avocados (represented as durometer stage) was measured using a durometer.
(§2) Three groups of 60 Mexican avocados were analyzed over three days at ambient temperature. One group received no treatment. One group of avocados at stage 1 (i.e., after day 0) was exposed to 1-MCP for approximately 8 hours. One group of avocados at stage 3 (i.e., after day 2) was exposed to 1-MCP for approximately 8 hours. The respiration rate of the avocados was measured over the course of 3 days.
(§3) To determine the difference in performance for treating avocados on a brush bed at varying concentrations before or after they have been put in ripening rooms, four flats of Mexican avocados were analyzed. One flat received no treatment. The other three flats were treated with physical treatment A at 12, 22, and 32 g/L, respectively, applied using brush bed system and subsequently dried at 50° C. Avocados treated with physical treatment A were also triggered with ethylene, either before or after treatment with physical treatment A. The respiration rate of the avocados was measured. The firmness of the avocados was measured using a durometer.

The test system of data set [2] is Cucumbers. In words: Respiration rate of cucumbers. The settings on record: 20° C., 5 days. Type of data set: in vivo, cucumber. The text has this: (§4) As used herein, the “respiration rate” of a product such as produce (e.g., a produce unit) refers to the rate at which the product releases CO2, and more specifically is the volume of CO2 (at standard temperature and pressure) released per unit time per unit mass of the product. In some embodiments, the respiration rate of a product can be measured by placing the product in a closed container of known volume that is equipped with a CO2 sensor, recording the CO2 concentration within the container as a function of time, and then calculating the rate of CO2 release required to obtain the measured concentration values. In some cases, the respiration rate of multiple produce units in a volume (e.g., a sealed or semi-sealed volume) is measured in a single measurement (e.g., as an average). It is understood that respiration rate may be determined by indirect methods, including, but not limited to, hyperspectral imaging, NIR, and other imaging or characterization processes.
Cucumbers were analyzed in the presence (2 ppm) and absence (0 ppm) of exogenous ethylene at 20° C. for 5 days. Four groups of cucumbers were analyzed. One group received no treatment. One group was treated with a chemical treatment (i.e., 1-MCP). One group was treated with a physical treatment A (40 g/L). […] The respiration rate and the mass loss rate of the cucumbers was measured

The subject of data set [3] is Mexican avocados. Put plainly: Respiration rate (CO2 release) of Mexican avocados. The data set is classed as in vivo, avocado. The settings on record: for cumulative respiration factor (RF): Example 3.
From the text: as §4
As used herein, the term “respiration factor” is defined as the ratio of the cumulative respiration of uncoated produce (measured for a control group) to the cumulative respiration of the corresponding coated produce.
as §1, §2
(§5) Three groups of 120 Mexican avocados were analyzed over about 5 days. One group received no treatment. One group was exposed to 1-MCP for 8 hours immediately after removal from cold storage at 4.5° C. (“cold 1-MCP”). One group was exposed to 1-MCP for 8 hours after the avocados spent 2 hours at ambient temperature (“semi-cold 1-MCP”). One group was exposed to 1-MCP for 8 hours after the avocados spent 6 hours at ambient temperature (“ambient 1-MCP”). The respiration rate of the avocados was measured over the course of 5 days. The firmness of the avocados was measured using a durometer.
Four groups of Mexican avocados were analyzed in order to investigate the minimum respiration peak that Mexican avocadoes should reach in order to ripen without quality issues. One group received no treatment. One group was treated with 1 layer of physical treatment (by bowl dipping and ambient drying; physical treatment A at 30 g/L with 3 g/L glycerol monocaprate). […] The respiration rate of the avocados was measured daily for three weeks. […]
To determine the difference in performance for treating avocados on a brush bed at varying concentrations before or after they have been put in ripening rooms, four flats of Mexican avocados were analyzed. […]

The test system of data set [4] is Cucumbers. Put plainly: Mass loss rate of cucumbers. The data set is classed as in vivo, cucumber. The settings on record: 20° C., 5 days. As for the experimental part: (§6) As used herein, the “mass loss rate” refers to the rate at which the product loses mass (e.g. by releasing water and other volatile compounds). The mass loss rate is typically expressed as a percentage of the original mass per unit time (e.g., percent per day).
(§7) Cucumbers were analyzed in the presence (2 ppm) and absence (0 ppm) of exogenous ethylene at 20° C. for 5 days. Four groups of cucumbers were analyzed. One group received no treatment. One group was treated with a chemical treatment (i.e., 1-MCP). One group was treated with a physical treatment A (40 g/L). One group was treated with both a chemical treatment (i.e., 1-MCP) and physical treatment A (40 g/L). The respiration rate and the mass loss rate of the cucumbers was measured

Data set [5] concerns Mexican avocados. In words: Firmness / durometer stage of Mexican avocados. The data set is classed as in vivo, avocado. As for the experimental part:
In some embodiments, a stage of a produce unit (e.g., an avocado) is based on firmness, and can be measured in shores (e.g., using a durometer) and/or pounds of pressure (e.g., using a penetrometer), then correlated to a stage. In some embodiments, a stage of a produce unit can be based on other parameters, such as respiration rate and/or color).
as §1, §2, §5, §3

Data set [6] relates to Persian limes. Put plainly: Aesthetics (yellowing) of Persian limes. The data set is classed as in vivo, Persian lime. The settings on record: over a 5 day period; same trends with 2 ppm ethylene. As for the experimental part: (§8) Persian limes were analyzed in the presence (2 ppm) and absence (0 ppm) of exogenous ethylene at 20° C. for 5 days. Four groups of limes were analyzed. One group received no treatment. One group was treated with 1-MCP. One group was treated with physical treatment A (40 g/L). One group was treated with both 1-MCP and physical treatment A (40 g/L). The respiration rate of the limes was measured. The mass loss rate of the limes was measured.

The test system of data set [7] is Cucumbers. In words: Aesthetics (yellowing, shrivel) of cucumbers. Type of data set: in vivo, cucumber. The settings on record: 5 days exposure to exogenous ethylene (2 ppm). The protocol:
as §7

For data set [8], the system named is Persian limes. In words: Mass loss rate of Persian limes. The settings on record: not exposed to ethylene and in the presence of 2 ppm ethylene, 20° C., 5 days. Type of data set: in vivo, Persian lime. The protocol:
as §6, §8

Where [9] appears, read: Example 1, once allowed to ripen (about two weeks), 6 packets 1-MCP.
The mark [10] stands for this setting: Example 3, semi-cold and ambient 1-MCP.

Consider one compound from patent publication US20220039416A1, “METHODS OF CONTROLLING THE RIPENING OF AGRICULTURAL PRODUCTS” (Apeel Technology, Inc., priority 2020, published 2022).

SMILES strings stand for the structures. Some results are limits rather than exact numbers.

For `CC1=CC1` [1-MCP, 1-methylcyclopropene], the “checkerboarding (high variability of stage of ripeness)” value in the data set with Mexican avocados [1] (Example 1) is recorded as “observed”. The “feel of the avocados” value in the data set on Mexican avocados [1] (Example 1) is recorded as “spongy”. Further, the “incidence of flesh adhesion” value in the data set with Mexican avocados [1] (setting [9]) was greater than 30%. This compound showed an incidence of mold with Mexican avocados [1] (setting [9]) greater than 25%. Also, the internal quality result in the data set on Mexican avocados [1] (Example 2) is listed as “did not improve internal quality”. The “incidence of mold and vascular browning” value in the data set with Mexican avocados [1] (Example 2, 1-MCP at stage 1 or stage 3, approximately 40 shore) is 15-25%. Also, the respiration rate result with Cucumbers [2] (absence of ethylene) is “did not lower the overall respiration rate”; in the data set on Cucumbers [2] (exposed to ethylene (2 ppm)), “mitigated the corresponding increase in respiration rate”; in the data set with Mexican avocados [3] (Example 1, exposed 8 hr to 2, 4 or 6 packets 1-MCP (in cyclodextrin at 0.014%) in sealed 30 L container, measured over 4 days), “high upon removal but quickly decreased and continued to decrease through 4 days post-exposure”. In addition, the CO2 production entry with Mexican avocados [3] (Example 2, 1-MCP exposure at stage 1) is listed as “continuous decrease in CO2 production, back to day 0 levels”. For the same compound, the “cumulative respiration factor (RF)” value in the data set on Mexican avocados [3] (cold 1-MCP: exposed 8 hours immediately after removal from 4.5° C. storage) was 1.8 ×; in the data set with Mexican avocados [3] (semi-cold (2 hours at ambient) and ambient (6 hours at ambient) 1-MCP exposure, 8 hours), 2.5 ×. Further, the “RF (respiration factor)” value in the data set on Mexican avocados [3] (Example 7, 1-MCP 8 hours, regardless of subsequent ethylene exposure (24 hours at 200 ppm)) was determined as 1.62 ×. In addition, the mass loss rate result in the data set on Cucumbers [4] (absence of ethylene) is “no impact”; in the data set on Cucumbers [4] (presence of ethylene (2 ppm)), “lowered the mass loss rate”; in the data set on Persian limes [8], “no significant impact”. The same compound yielded a durometer stage in the data set with Mexican avocados [5] (Example 1, 6 packets of 1-MCP, day 4 (untreated stage 5)) of 1.5. Moreover, the softening rate entry in the data set with Mexican avocados [5] (Example 2, 1-MCP applied at stage 3) is on record as “slight effect”. In addition, the ripening entry in the data set on Mexican avocados [5] (Example 3, cold 1-MCP) is recorded as “ripening behavior was still observed”; in the data set on Mexican avocados [5] (setting [10]), “did not ripen effectively”. The “ripening stage relative to control group” value in the data set with Mexican avocados [5] (Example 3, cold 1-MCP, by the time the control group reached stage 5) was “over two stages behind the control group”. For the same compound, in the data set with Mexican avocados [5] (setting [10]), the softening rate reduction entry is “greater softening rate reduction than cold 1-MCP”. In addition, the yellowing / aesthetics entry in the data set on Persian limes [6] is recorded as “reduced the yellowing”. Moreover, in the data set on Cucumbers [7], the yellowing result is “greater positive impact on the rate of yellowing”.
